Test results published in US20250213528A1, “5-METHOXY-N,N-[…][…] THE TREATMENT OF ANXIETY” (GH RESEARCH IRELAND LIMITED, priority 2022, published 2025).

Key:
[1] = Pharmacokinetics of 5-MeO-DMT and bufotenine after inhalation of 5-MeO-DMT; type: in vivo, human
[2] = test system: Escherichia coli WP2 uvrA pKM101; assay: Bacterial mutation test, Escherichia coli; type: cell-based; details: up to 5000 μg/plate, absence and presence of rat liver S-9
Description: (§1) These conditions included treatments at concentrations up to 5000 μg/plate (the maximum recommended concentration according to current regulatory guidelines), in the absence and in the presence of a rat liver metabolic activation system (S-9).

[3] = test system: patients with postpartum depression (PPD); assay: Clinical trial of inhaled 5-MeO-DMT in postpartum depression, one patient, IDR 6 mg then 12 mg; type: in vivo, human; details: n=1
Source text: Maternal functioning can, for instance, be assessed using the Barkin Index of Maternal Functioning (BIMF). This index was designed to measure functioning in the year after childbirth. The BIMF is a 20-item self-report measure of functioning. Each item is assigned a score between 0 and 6 so that the maximum total score is 120. The higher the score, the better maternal functioning is rated.
The single-arm, open-label clinical trial will involve 15 adult female patients with clinically diagnosed postpartum depression (PPD).
The second dose (12 mg) will only be administered if: • a. […] The 6 mg dose was safe and well-tolerated according to the investigator, • c. Any psychoactive effects (PsE) of the prior dose have subsided, and • d. Pre-dose vital parameters and forced expiratory volume in one second (FEV1) are in normal range, or if outside of the normal range, are not clinically significant according to the investigator. • 3. Similarly, a third dose (18 mg) will only be administered if: • a. […] The 12 mg dose was safe and well-tolerated according to the investigator, and • c. Any PsE of the prior dose have subsided, and • d. Pre-dose vital parameters and forced expiratory volume in one second (FEV1) are in normal range, or if outside of the normal range, are not clinically significant according to the investigator.
The patients will be assessed for a peak psychedelic experience (based on a patient-scored visual analogue scale, the PE scale), sedation, and other endpoints after dosing. Follow-up visits are planned for Day 1, and Day 7 after the dosing day.
The following criteria must be met by all patients considered for clinical trial participation: • 1. Is female and in the age range between 18 and 45 years (inclusive) at screening. • 2. Has a body mass index (BMI) in the range of 18.5 and 35 kg/m^2 (inclusive) at screening. • 3. Meets the trial criteria for PPD as assessed by a trial psychiatrist or registered psychologist: • a. Diagnosis of Major Depressive Disorder without psychotic features, confirmed by the Mini-International Neuropsychiatric Interview (MINI), with peri-partum onset that began no earlier than gestation and no later than the first 4 weeks postpartum. • b. Has a Montgomery-Åsberg Depression Rating Scale (MADRS) total score of equal to or greater than 28 at screening and pre-dose on Day 0. • 6. […] Patients must have a negative pregnancy test at screening and on the pre-test day (Day-1). • 5. Is willing to delay start of other antidepressant or anxiety medication until after the end of the trial at Day 7 and agrees to keep any psychotherapy unchanged during the trial.
A potential patient who meets any of the following key exclusion criteria will be excluded from participation in this trial: • 1. Has, based on history, psychiatric assessment, and evaluation of the MINI, a current or prior diagnosis of bipolar disorder, a manic or hypomanic episode, a psychotic disorder, Major Depressive Disorder (MDD) or other mood disorder with psychotic features, obsessive compulsive disorder, post-traumatic stress disorder (PTSD), autism spectrum disorder, borderline personality disorder, schizophrenia, delusional disorder, paranoid personality disorder, schizoaffective disorder, clinically significant intellectual disability, or any other psychiatric comorbidity that renders the patient unsuitable for the trial according to the investigator's judgment. • 2. Has one or more first or second degree relatives with a current or previously diagnosed bipolar disorder, psychotic disorder or other mood disorder (including MDD) with psychotic features. • 3.

[4] = test system: Salmonella typhimurium TA98, TA100, TA1535 and TA1537; assay: Bacterial mutation test, Salmonella typhimurium; type: cell-based; details: up to 5000 μg/plate, absence and presence of rat liver S-9
Description: as §1

CN(C)CCc1c[nH]c2ccc(O)cc12 [bufotenine]
bufotenine blood concentration above LLOQ ([1]; after inhaled 5-MeO-DMT, LLOQ 25 pg/ml): Only in few samples
bufotenine blood concentrations under uptitration ([1]; subjects receiving an uptitration scheme included): Substantially similar observations

COc1ccc2[nH]cc(CCN(C)C)c2c1 [5-MeO-DMT]
detectability in the plasma ([1]; 3 hours after inhalation, whole dose range 6, 12, 18 mg): no longer detectable
pharmacokinetic measurements under uptitration ([1]; dosing schemes relying on uptitration, compared with single doses): Substantially similar results
mutation induction [2]: did not induce mutation
standard criteria for MADRS remission (MADRS total score equal or less than 10) [3]: fulfilled
standard criteria for MADRS response (at least 50% improvement from baseline) [3]: fulfilled
time to clinical remission after administration [3]: ≤ 2 h
durability of clinical response ([3]; 5-MeO-DMT given on one day only): sustained over the 7-day follow-up period
Total MADRS Improvement ([3]; 2 hr): 24
BPRS Tension Improvement ([3]; Day 1): 5
Total MADRS Improvement ([3]; Day 1): 29
Total MADRS Improvement ([3]; Day 7): 28
BIMF item 19 As time goes on, I am getting better at taking care of my baby, score ([3]; Day 7, Day 0 score 0): 1
BIMF item 13 I am taking good care of my physical needs, score ([3]; Day 7, Day 0 score 4): 5
BIMF item 5 I am able to relax and enjoy time with my baby, score ([3]; Day 7, Day 0 score 5): 6
BIMF item 9 I am getting enough encouragement from other people, score ([3]; Day 7, Day 0 score 5): 6
BIMF item 10 I trust my own feelings (instincts) when it comes to taking care of my baby, score ([3]; Day 7, Day 0 score 5): 6
BIMF item 17 I am able to take care of my baby and my other responsibilities, score ([3]; Day 7, Day 0 score 5): 5
BIMF functional domain Adjustment score ([3]; Day 7, Day 0 score 5, maximum possible 12): 6
BIMF item 3 I am comfortable with the way I've chosen to feed my baby, score ([3]; Day 7, Day 0 score 6): 6
BIMF item 6 There are people in my life that I can trust to care for my baby when I need a break, score ([3]; Day 7, Day 0 score 6): 6
BIMF item 8 I am getting enough adult interaction, score ([3]; Day 7, Day 0 score 6): 6
BIMF item 12 I am taking good care of my baby's physical needs, score ([3]; Day 7, Day 0 score 6): 6
BIMF item 14 I make good decisions about my baby's health and well being, score ([3]; Day 7, Day 0 score 6): 6
BIMF item 20 I am satisfied with the job I am doing as a new mother, score ([3]; Day 7, Day 0 score 6): 5
BIMF functional domain Self Care score ([3]; Day 7, Day 0 score 9, maximum possible 18): 13
BIMF functional domain Infant Care score ([3]; Day 7, Day 0 score 12, maximum possible 12): 12
BIMF functional domain Mother-Child Interaction score ([3]; Day 7, Day 0 score 15, maximum possible 18): 17
BIMF functional domain Social Support score ([3]; Day 7, Day 0 score 17, maximum possible 18): 18
BIMF functional domain Management score ([3]; Day 7, Day 0 score 28, maximum possible 36): 33
BIMF functional domain Psychological Well-being score ([3]; Day 7, Day 0 score 44, maximum possible 60): 53
BIMF total score improvement ([3]; Day 7, from 92 to 105 of possible 120): 14%
BIMF TOTAL, Δ (Day 7) ([3]; Day 7 vs Day 0): 13
BIMF item 3 I am comfortable with the way I've chosen to feed my baby, Δ (Day 7) ([3]; Day 7 vs Day 0): 0
BIMF item 5 I am able to relax and enjoy time with my baby, Δ (Day 7) ([3]; Day 7 vs Day 0): 1
BIMF item 6 There are people in my life that I can trust to care for my baby when I need a break, Δ (Day 7) ([3]; Day 7 vs Day 0): 0
BIMF item 8 I am getting enough adult interaction, Δ (Day 7) ([3]; Day 7 vs Day 0): 0
BIMF item 9 I am getting enough encouragement from other people, Δ (Day 7) ([3]; Day 7 vs Day 0): 1
BIMF item 10 I trust my own feelings (instincts) when it comes to taking care of my baby, Δ (Day 7) ([3]; Day 7 vs Day 0): 1
BIMF item 11 I take a little time each week to do something for myself, Δ (Day 7) ([3]; Day 7 vs Day 0): 1
BIMF item 12 I am taking good care of my baby's physical needs, Δ (Day 7) ([3]; Day 7 vs Day 0): 0
BIMF item 13 I am taking good care of my physical needs, Δ (Day 7) ([3]; Day 7 vs Day 0): 1
BIMF item 14 I make good decisions about my baby's health and well being, Δ (Day 7) ([3]; Day 7 vs Day 0): 0
BIMF item 17 I am able to take care of my baby and my other responsibilities, Δ (Day 7) ([3]; Day 7 vs Day 0): 0
BIMF item 19 As time goes on, I am getting better at taking care of my baby, Δ (Day 7) ([3]; Day 7 vs Day 0): 1
BIMF item 20 I am satisfied with the job I am doing as a new mother, Δ (Day 7) ([3]; Day 7 vs Day 0): −1
BPRS Tension Improvement ([3]; Discharge): 5
mutation induction [4]: did not induce mutation
